Results as given in PMC10587169, “Tuning aminopolycarboxylate chelators for efficient complexation of trivalent actinides” (Scientific Reports, 2023).
Like-named read-outs stand apart in the source and are kept apart here.

Assay: Potentiometric titration, acid dissociation constants
Type: physicochemical
Method: All potentiometric titrations were run using a Mettler Toledo T90 autotitrator equipped with an Orion Ross Semi-micro glass electrode with the junction stabilization solution changed to 5.0 M NaCl to prevent precipitation with perchlorate media. All titrations were performed under a hydrated nitrogen atmosphere. The forward titration measurements (acidic titrand, basic titrant) of H4octapa in nitrate electrolyte medium were performed as described previously due to the limited solubility of this ligand in a 2 M (Na^+/H^+)ClO4 medium. Acid dissociation constants of H4octapa in perchlorate electrolyte medium were also determined by titrating in reverse (basic titrand, acidic titrant) to alleviate the solubility concerns. Titrations of H4pypa-peg were performed in reduced-volume glass titration cups (10 mL nominal) due to the limited supply of this ligand. All potentiometric titrations were run in triplicate. The choice of using p[H^+] was explained in Heathman et al.[15], and the calibration of the p[H^+] scale utilized Gran analysis through titration of a strong acid with the base used in the potentiometric titrations[29]–[31]. Potentiometric titration data was modeled and analyzed using Hyperquad2013 to determine acid dissociation and metal complexation stability constants[32],[33].
Changes in hydrogen ion concentration were monitored using a glass electrode for a solution of H4octapa as either NaOH or HClO4 were titrated into the solutions. […] The experimental potentiometric curve collected for a forward titration of H4octapa in (Na^+/H^+)NO3 is presented in Fig. 3A, alongside the distribution curves for the identified HnL species. Following those studies, the acid/base conditions were reversed and octapa^4− was titrated in 2.0 M (Na^+/H^+)ClO4 using HClO4 (SI Figure S7). The potentiometric curves are well respresented by five proton dissociation equilibria. The calculated equilibrium constants correspond with the protonation reactions for two aliphatic amines, two pyridine nitrogens, and one carboxylate group with the protonation sequence described by Eq. (2). The acid dissociation constants (pKa = − log10Ka) for H4octapa are reported in Table 1 alongside previously reported values in the literature.
The experimental potentiometric titration curve and the distribution curves for the associated HnL species for H4pypa-peg are presented in Fig. 3B. […] For comparison, the protonation equilibria of H4edta were also studied in 2.0 M (Na^+/H^+)ClO4. The pKa values for H4edta are listed in Table 2 and collected potentiometric titration curves (forward and reverse) are presented in SI Figure S8. For H4pypa-peg coordination pocket the protonation of H9L^5+, H7L^3+, and H6L^2+ cannot be characterized using a glass electrode. The H6L^2+ species likely represents a protonated carboxylate group, while H5L^+ and H4L may describe the pyridinecarboxylate nitrogens. The equilibrium involving H3L^− likely describes the dissociation of the protonated pyridine nitrogen, while the two most basic species in this ligand (HL^3− and H2L^2−) are likely the bridging amines in the H4pypa-peg backbone. Equation (3) describes the protonation sequence for H4pypa-peg.3 H10-aL^+6-a⇆H9-aL^+5-a+H^+Ka=H^+·H9-aL^+5-a/H10-aL^+6-aa=1…9

[1] = aqueous 2.0 M (Na+/H+)ClO4 electrolyte solution, I = 2.0 M (Na+/H+)ClO4 at 20.0 °C, read-out: pKa H2L species
[2] = aqueous 2.0 M (Na+/H+)ClO4 electrolyte solution, I = 2.0 M (Na+/H+)ClO4 at 20.0 °C, read-out: pKa H3L species
[3] = aqueous 2.0 M (Na+/H+)ClO4 electrolyte solution, I = 2.0 M (Na+/H+)ClO4 at 20.0 °C, read-out: pKa H4L species
[4] = aqueous 2.0 M (Na+/H+)ClO4 electrolyte solution, I = 2.0 M (Na+/H+)ClO4 at 20.0 °C, read-out: pKa H5L species
[5] = aqueous 2.0 M (Na+/H+)ClO4 electrolyte solution, I = 2.0 M (Na+/H+)ClO4 at 20.0 °C, read-out: pKa H6L species
[6] = aqueous 2.0 M (Na+/H+)ClO4 electrolyte solution, I = 2.0 M (Na+/H+)ClO4 at 20.0 °C, read-out: pKa HL species

| Structure (SMILES) | pKa (aqueous 2.0 M (Na+/H+)ClO4 electrolyte solution, I = 2.0 M (Na+/H+)ClO4 (Table 2), read-out: pKa H2L2-) | pKa (aqueous 2.0 M (Na+/H+)ClO4 electrolyte solution, I = 2.0 M (Na+/H+)ClO4 (Table 2), read-out: pKa H3L-) | pKa (aqueous 2.0 M (Na+/H+)ClO4 electrolyte solution, I = 2.0 M (Na+/H+)ClO4 (Table 2), read-out: pKa H4L(aq)) | pKa (aqueous 2.0 M (Na+/H+)ClO4 electrolyte solution, I = 2.0 M (Na+/H+)ClO4 (Table 2), read-out: pKa H5L+) | pKa (aqueous 2.0 M (Na+/H+)ClO4 electrolyte solution, I = 2.0 M (Na+/H+)ClO4 (Table 2), read-out: pKa H6L2+) | pKa (aqueous 2.0 M (Na+/H+)ClO4 electrolyte solution, I = 2.0 M (Na+/H+)ClO4 (Table 2), read-out: pKa HL3-) | pKa [1] | pKa [2] | pKa [3] | pKa [4] | pKa [5] | pKa [6] | pKa (aqueous 2.0 M (Na+/H+)ClO4 electrolyte solution, I = 2.0 M (Na+/H+)ClO4 at 20.0 °C, read-out: pKa H7L species) | pKa (aqueous 2.0 M (Na+/H+)NO3 electrolyte solution, I = 2.0 M (Na+/H+)NO3 at 25.0 °C, read-out: pKa H2L2-) | pKa (aqueous 2.0 M (Na+/H+)NO3 electrolyte solution, I = 2.0 M (Na+/H+)NO3 at 25.0 °C, read-out: pKa H3L-) | pKa (aqueous 2.0 M (Na+/H+)NO3 electrolyte solution, I = 2.0 M (Na+/H+)NO3 at 25.0 °C, read-out: pKa H4L(aq)) | pKa (aqueous 2.0 M (Na+/H+)NO3 electrolyte solution, I = 2.0 M (Na+/H+)NO3 at 25.0 °C, read-out: pKa H5L+) | pKa (aqueous 2.0 M (Na+/H+)NO3 electrolyte solution, I = 2.0 M (Na+/H+)NO3 at 25.0 °C, read-out: pKa HL3-) |
| --- | --- | --- | --- | --- | --- | --- | --- | --- | --- | --- | --- | --- | --- | --- | --- | --- | --- | --- |
| O=C(O)CN(Cc1cc(-c2cn(CCOCCOCCO)nn2)cc(CN(CC(=O)O)Cc2cccc(C(=O)O)n2)n1)Cc1cccc(C(=O)O)n1 [H4pypa-peg, 6,6'-((((4-(1-(2-(2-(2-hydroxyethoxy)ethoxy)ethyl)-1H-1,2,3-triazol-4-yl)pyridine-2,6-diyl)bis–(methylene))bis–((carboxymethyl)azanediyl))bis–(methylene)) dipicolinic acid] | 6.45 | 3.92 | 3.37 | 2.45 | 1.43 | 7.44 | – | – | – | – | – | – | – | – | – | – | – | – |
| O=C(O)CN(CCN(CC(=O)O)CC(=O)O)CCN(CC(=O)O)CC(=O)O [H5dtpa, diethylenetriamine-N,N,N',N'',N''-pentaacetic acid] | – | – | – | – | – | – | 8.31 | 5.57 | 4.38 | 2.53 | 2.41 | 9.5 | – | – | – | – | – | – |
| O=C(O)CN(CCN(CCN(CC(=O)O)CC(=O)O)CC(=O)O)CCN(CC(=O)O)CC(=O)O [H6ttha, triethylenetetraamine-N,N,N',N'',N''',N'''-hexaacetic acid] | – | – | – | – | – | – | 8.67 | 6.27 | 4.12 | 2.7 | 2.19 | 9.48 | 1.86 | – | – | – | – | – |
| O=C(O)CN(CCN(CC(=O)O)Cc1cccc(C(=O)O)n1)Cc1cccc(C(=O)O)n1 [H4octapa, 6,6′-((ethane-1,2-diylbis–((carboxymethyl)azanediyl))bis–(methylene))dipicolinic acid] | – | – | – | – | – | – | 5.57 | 3.82 | 3.18 | 1.63 | – | 8.41 | – | 5.27 | 3.63 | 3 | 1.63 | 8.16 |
